{"source": "patent US20150253323A1", "about": "“METHODS AND KITS FOR HIGH THROUGHPUT SCREENING FOR COMPOUNDS TARGETING DNA-BINDING AND RNA-BINDING PROTEINS” (The Florida International University Board of Trustees, priority 2014, published 2015)", "molecules": {"B1": {"name": "FL842/FL843 duplex (dsDNA)", "DNA 1": "CCCCCCATATTCGCGATTATTGCGC", "DNA 2": "GCGCAATAATCGCGAATATGGGGGG"}}, "key": {"HMGA2-FL814 interaction": {"test_system": "HMGA2-FL814 interaction", "assay": "PDI-ELISA for HMGA2 binding to DNA oligomer FL814", "parameters": "species or system mammalian", "details": "for OD450 of the PDI-ELISA in the presence of the compound: 100 nM compound, 100 nM FL814, 1 μM HMGA2, 2×SSCT, OD450 without drug 1.44; for inhibition of HMGA2-FL814 interactions: compound at 100 nM in 2×SSCT, FIG. 12 / Table 1"}, "FL814": {"test_system": "FL814", "assay": "Competition dialysis assay, free FL814", "format": "binding"}, "HMGA2-FL814 complex": {"target": "T1, HMGA2-FL814 complex (Mus musculus, UniProt P52927)", "T1 sequence (P52927 2-108 limits assumed)": "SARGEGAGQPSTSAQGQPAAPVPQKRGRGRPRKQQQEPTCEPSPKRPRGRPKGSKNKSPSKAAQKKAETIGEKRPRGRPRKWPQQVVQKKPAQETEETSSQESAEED", "assay": "Competition dialysis assay, HMGA2-FL814 complex", "details": "3 μM complex dialyzed against 0.73 μM TMPyP4, 72 h, 2×SSCT"}, "3T3-L1 cells": {"test_system": "3T3-L1 cells", "assay": "Oil Red O staining of differentiated 3T3-L1 cells (adipogenesis)", "format": "cell-based, mouse", "details": "for IC50: 3T3-L1, Oil Red O absorbance 492 nm, read-out: inhibition IC50 of neutral lipids in the differentiated cells", "description": "Mouse pre-adipocytes (3T3-L1 cells) were a gracious gift from Dr Jun Liu at Mayo Clinic. 3T3-L1 cells were maintained in DMEM supplemented with 10% FBS, 100 U/ml penicillin, 100 μg/ml streptomycin and 5 μg/ml plasmocin. The cells were grown under normal culture conditions of 5% CO2 and humidity. Cells were maintained for a minimum of three passages in linear growth prior to differentiation. To differentiate the 3T3-L1 pre-adipocytes into adipocytes, we used the protocol previously described by Zebisch et al. (Zebisch, K., et al. (2012)). Briefly, 3T3-L1 pre-adipocytes were sub-cultured in DMEM supplemented with 5% newborn calf serum, 100 U/ml penicillin, 100 μg/ml streptomycin and 5 μg/ml plasmocin (Basal Media 1—BM1). The cells were then plated at 6×10^5 cells per dish in 35-mm dishes, 3×10^5 cells per well in a 12-well plate, 1.5×10^5 cells in a 24-well plate or 3.0×10^4 cells per well in a 96-well plate. The cells were grown to confluency with BM1 replacement every other day. Following 48 h of confluency, 3T3-L1 cells were treated with Differentiation medium 1 (DM1), which is BM1 supplemented with […] iso-butyl-methylxanthine, 0.25 μM dexamethasone, 1 μg/ml insulin and 2 μg/ml rosiglitazone. After 48 h, the medium was replaced with differentiation medium 2 (DM2); this is BM1 supplemented with 1 μg/ml insulin. On the seventh day, the cells were placed in DMEM with FBS. The cells were cultured to the date indicated in the experiments below with media changes every other day. The presence of adipogenesis was confirmed by microscopic detection of adipose bodies in the cells. For our experiments, only cultures with >80% differentiation were used.\nFollowing differentiation and drug treatment, Oil Red O staining was used to qualitatively and quantitatively assess the level of neutral lipids in the differentiated cells. For qualitative assessment by phase microscopy, cells were washed twice in PBS and then fixed with 10% formalin for 30 min at room temperature. Oil Red O was reconstituted at 300 mg per 100 ml of isopropanol. The Oil Red O solution was prepared for staining by adding 20 ml of deionized water to 30 ml of the Oil Red O stock solution and filtered. The cells were then incubated for 5 min in 60% isopropanol. The Oil Red O working solution was then added to cells for 5 min. The monolyers were then rinsed clean with deionized water. The cells were then visualized using phase microscopy on the EVOS XL Core microscope. For quantitative assessment of adipogenesis in 96-well formats, cells were lysed in dimethylsulfoxide (DMSO) following the water wash of Oil Red O stained cells. The DMSO released the intracellular Oil Red O into the solution. The absorbance (492 nm) was measured using the BioTek Synergy H1 plate reader."}, "HMGA2": {"test_system": "HMGA2", "assay": "In-cell western analysis of HMGA2 expression in 3T3-L1 cells", "format": "cell-based, mouse", "details": "normalized to TO-PRO-3, FIGS. 17F and G", "description": "Specific protein levels were analyzed using in-cell western technology (Egorina, E. M., et al (2006)). During differentiation and drug administration, 3T3-L1 cells were fixed in 4% paraformaldehyde in PBS for 25 min at room temperature. Pre-adipocytes were quenched by washing the cells in 100 mM glycine for 5 min at room temperature. The cells were permeabilized by incubating the cells in 0.2% Triton X-100 in PBS for 30 min at room temperature. The cells were then blocked using LICOR Odyssey Blocking Buffer (LI-COR Biosciences, 927-40100) for 1 h at room temperature. Cells were then incubated with a primary antibody for HMGA2 (Cell Signaling Technologies #5269) at a 1:500 dilution in LI-COR Odyssey Blocking Buffer supplemented with 0.1% Tween-20 for 2.5 h at room temperature. The cells were washed in 0.1% Tween in PBS. Secondary antibodies (IRDye 800CW anti-rabbit, LI-COR Biosciences, 926-32211) were incubated at a dilution of 1:1000 in LI-COR Blocking Buffer supplemented with 0.1% Tween-20 for 1 h. Concurrent to the addition of secondary antibody TO-PRO-3 (Invitrogen) was added at a 1:1000 dilution as a normalization control for cell number and incubated for 1 h. The cells were washed again in 0.1% Tween-20 in PBS. Plates were then scanned on the LICOR Biosciences Odyssey CLx Infrared Imaging System and quantified using the LI-COR in-cell western analysis in Image Studio."}, "[1]": {"target": "T2, HMGA2 (high mobility group protein AT-hook 2) (mammalian, UniProt P52926 P52926:2-109)", "T2 sequence": "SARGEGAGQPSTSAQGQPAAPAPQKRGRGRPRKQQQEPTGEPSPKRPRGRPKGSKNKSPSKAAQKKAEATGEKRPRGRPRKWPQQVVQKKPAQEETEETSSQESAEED", "assay": "ELONA; duplex without hairpin loop; 100 nM DNA, 1 uM HMGA2; binding enhanced by TMPyP4", "details": "tags: purified as in Cui et al. 2007"}}, "note": "Entries after “also recorded” stand apart in the source; their conditions may differ. Structures can show the parent of a compound that is named as a salt. Where two headings read alike, the source gives them in different places."}
{"molecule": "C[n+]1ccc(-c2c3nc(c(-c4cc[n+](C)cc4)c4ccc([nH]4)c(-c4cc[n+](C)cc4)c4nc(c(-c5cc[n+](C)cc5)c5ccc2[nH]5)C=C4)C=C3)cc1", "note": "[TMPyP4]", "values": [{"measurement": "enhancement of HMGA2 binding to double stranded oligomer (FL842/FL843) without loop", "setting": "HMGA2-FL814 interaction; 100 nM annealing product of FL842 and FL843, 1 μM HMGA2, FIG. 15B", "value": "able to enhance the binding; also recorded: enhancement"}, {"measurement": "OD450 of the PDI-ELISA in the presence of the compound", "setting": "HMGA2-FL814 interaction", "value": "Very high"}, {"measurement": "enhancement of HMGA2 binding to FL814 (OD450)", "setting": "HMGA2-FL814 interaction; titration, 100 nM FL814, 1 μM HMGA2, FIG. 14", "value": "dramatically enhance; also recorded: significantly enhanced"}, {"measurement": "binding to FL814", "setting": "FL814; 3 μM FL814 dialyzed against 0.73 μM TMPyP4, 72 h, 2×SSCT", "value": "tightly"}, {"measurement": "binding stoichiometry to FL814", "setting": "FL814; competition dialysis, 0.73 μM TMPyP4", "value": "two molecules of TMPyP4 bind to one molecule of FL814"}, {"measurement": "binding to the FL814-HMGA2 complex", "setting": "HMGA2-FL814 complex", "value": "tightly"}]}
{"molecule": "Cn1cc(NC(=O)c2cc(NC(=O)CN=C(N)N)cn2C)cc1C(=O)NCCC(=N)N", "note": "[Netropsin, netropsin dihydrochloride]", "values": [{"measurement": "OD450 of the PDI-ELISA in the presence of the compound", "setting": "HMGA2-FL814 interaction", "value": 0.152}, {"measurement": "inhibition of HMGA2-DNA interactions (OD450 back to background)", "setting": "HMGA2-FL814 interaction; 500 nM or 1 μM netropsin, FIG. 10A, dihydrochloride", "value": "complete inhibition; also recorded: completely inhibited"}, {"measurement": "inhibition of HMGA2-FL814 interactions", "setting": "HMGA2-FL814 interaction; dihydrochloride", "value": "completely inhibit"}, {"measurement": "inhibition of HMGA2-FL814 interactions", "setting": "HMGA2-FL814 interaction; listed as netropsin, dihydrochloride", "value": "potently inhibit"}, {"measurement": "IC50", "setting": "HMGA2-FL814 interaction; netropsin titration, FIG. 10B, 0.5 μM HMGA2, read-out: inhibitory IC50 of HMGA2 binding to FL814", "value": "~10", "unit": "nM"}, {"measurement": "IC50", "setting": "HMGA2-FL814 interaction; netropsin titration, FIG. 11B, three titration experiments, read-out: apparent inhibitory IC50 of HMGA2 binding to FL814", "value": "9.3 ± 0.78", "unit": "nM"}, {"measurement": "inhibition of differentiation of 3T3-L1 cells to adipocytes", "setting": "3T3-L1 cells; FIGS. 17A-17G", "value": "strongly inhibited"}, {"measurement": "inhibition at 10 µM", "setting": "3T3-L1 cells; Mus musculus, 10 μM, Oil red O staining, differentiated 3T3-L1 cells, read-out: inhibition of neutral lipid production", "value": "> 50", "unit": "%"}, {"measurement": "IC50", "setting": "3T3-L1 cells; Mus musculus", "value": "7900 ± 1100", "unit": "nM"}, {"measurement": "HMGA2 expression in fully differentiated 3T3-L1 cells in the presence of the compound", "setting": "HMGA2", "value": "expressed"}]}
{"molecule": "CCN(CC)CCCC(C)Nc1c2ccc(Cl)cc2nc2ccc(OC)cc12", "note": "(centres unmarked) [Quinacrine dihydrochloride, quinacrine dihydrochloride]", "values": [{"measurement": "OD450 of the PDI-ELISA in the presence of the compound", "setting": "HMGA2-FL814 interaction", "value": 1.46}]}
{"molecule": "COc1cccc2c1C(=O)c1c(O)c3c(c(O)c1C2=O)C[C@@](O)(C(C)=O)C[C@@H]3O[C@H]1C[C@H](NCc2cccc(CN[C@@H]3C[C@@H](O[C@H]4C[C@](O)(C(C)=O)Cc5c(O)c6c(c(O)c54)C(=O)c4c(OC)cccc4C6=O)O[C@H](C)[C@@H]3O)c2)[C@H](O)[C@H](C)O1", "note": "[WP762]", "values": [{"measurement": "OD450 of the PDI-ELISA in the presence of the compound", "setting": "HMGA2-FL814 interaction", "value": 0.56}, {"measurement": "IC50", "setting": "HMGA2-FL814 interaction; 25° C., read-out: IC50 for inhibition of binding of HMGA2 to DNA", "value": "115 ± 19.7", "unit": "nM"}, {"measurement": "inhibition of HMGA2-FL814 interactions", "setting": "HMGA2-FL814 interaction", "value": "potently inhibit"}]}
{"molecule": "C=C1C(=O)OC(CCCCCCCC)C1C(=O)O", "note": "(centres unmarked) [C-75]", "values": [{"measurement": "IC50", "setting": "3T3-L1 cells", "value": "3700 ± 800", "unit": "nM"}]}
{"molecule": "CN(C)c1ccc2nc3ccc(=[N+](C)C)cc-3sc2c1", "note": "[Methylene Blue, methylene blue]", "values": [{"measurement": "OD450 of the PDI-ELISA in the presence of the compound", "setting": "HMGA2-FL814 interaction", "value": 0.93}]}
{"molecule": "CN(C)c1ccc(C(=C2C=CC(=[N+](C)C)C=C2)c2ccc([N+](C)(C)C)cc2)cc1.[Cl-].[Cl-]", "note": "[Methyl Green, methyl green]", "values": [{"measurement": "OD450 of the PDI-ELISA in the presence of the compound", "setting": "HMGA2-FL814 interaction", "value": 1.06}]}
{"molecule": "COc1ccc2cc3[n+](cc2c1OC)CCc1cc2c(cc1-3)OCO2", "note": "[Berberine chloride, berberine chloride]", "values": [{"measurement": "OD450 of the PDI-ELISA in the presence of the compound", "setting": "HMGA2-FL814 interaction", "value": 0.91}]}
{"molecule": "O=C1c2ccc3c4ccc5c6c(ccc(c7ccc(c2c37)C(=O)N1CCN1CCCCC1)c64)C(=O)N(CCN1CCCCC1)C5=O", "note": "[PIPER, N,N′-bis[2-(1-piperidino)ethyl]-3,4,9,10-perylenetetracarboxylic diimide]", "values": [{"measurement": "OD450 of the PDI-ELISA in the presence of the compound", "setting": "HMGA2-FL814 interaction", "value": 1.27}]}
{"molecule": "B1", "values": [{"measurement": "binding result", "setting": "[1]", "value": "binds"}]}
